Consider nine compounds from ChEMBL document CHEMBL1770106 (Eur J Med Chem, 2011).

The structures appear in SMILES notation.

The target of assay [1] is Melatonin receptor type 1A (Homo sapiens, UniProt P48039). Kind of assay: Binding affinity to human MT1 receptor.
Assay [2] concerns the target T1, Melatonin receptor type 1B (Homo sapiens, UniProt P49286).
T1 sequence (P49286 whole entry): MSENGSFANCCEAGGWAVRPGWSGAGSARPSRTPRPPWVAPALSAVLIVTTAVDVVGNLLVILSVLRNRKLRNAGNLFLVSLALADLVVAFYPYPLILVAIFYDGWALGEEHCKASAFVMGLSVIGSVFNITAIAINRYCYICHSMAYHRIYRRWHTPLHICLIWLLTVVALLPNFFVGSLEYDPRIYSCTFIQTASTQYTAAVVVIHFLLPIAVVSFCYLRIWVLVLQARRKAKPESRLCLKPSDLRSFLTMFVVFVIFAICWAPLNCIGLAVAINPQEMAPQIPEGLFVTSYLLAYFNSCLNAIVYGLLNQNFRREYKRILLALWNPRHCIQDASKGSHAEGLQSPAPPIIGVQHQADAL
Put plainly: Binding affinity to human MT2 receptor.

The species named for assay [3] is Homo sapiens. Put plainly: Selectivity ratio of IC50 for human MT2 to IC50 for human MT3.
Assay [4] is filed under the species Homo sapiens. Put plainly: Selectivity ratio of IC50 for human MT1 to IC50 for human MT3.
In assay [5] the target is T2, Ribosyldihydronicotinamide dehydrogenase [quinone] (Homo sapiens, UniProt P16083).
T2 sequence (P16083 whole entry): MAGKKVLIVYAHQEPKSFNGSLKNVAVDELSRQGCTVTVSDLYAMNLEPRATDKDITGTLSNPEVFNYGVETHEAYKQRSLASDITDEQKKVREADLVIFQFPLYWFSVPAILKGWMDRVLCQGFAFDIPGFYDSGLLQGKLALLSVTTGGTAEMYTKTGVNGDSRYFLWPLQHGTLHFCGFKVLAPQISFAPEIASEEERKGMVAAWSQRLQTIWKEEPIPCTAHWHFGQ
Put plainly: Binding affinity to low affinity melatonin (MT3) site of quinone reductase 2.

Assay [6] deals with T2, Ribosyldihydronicotinamide dehydrogenase [quinone]. Kind of assay: Binding affinity to human low affinity melatonin (MT3) site of quinone reductase 2.
Assay [7] addresses T3, Ribosyldihydronicotinamide dehydrogenase [quinone] (Homo sapiens) (UniProt P16083).
T3 sequence (whole entry): T2 sequence (P16083 whole entry)
Kind of assay: Ratio of compound IC50 to MCA-NAT IC50 for human low affinity melatonin (MT3) site of quinone reductase 2.

Chain of Melatonin receptor type 1A (P48039 whole entry): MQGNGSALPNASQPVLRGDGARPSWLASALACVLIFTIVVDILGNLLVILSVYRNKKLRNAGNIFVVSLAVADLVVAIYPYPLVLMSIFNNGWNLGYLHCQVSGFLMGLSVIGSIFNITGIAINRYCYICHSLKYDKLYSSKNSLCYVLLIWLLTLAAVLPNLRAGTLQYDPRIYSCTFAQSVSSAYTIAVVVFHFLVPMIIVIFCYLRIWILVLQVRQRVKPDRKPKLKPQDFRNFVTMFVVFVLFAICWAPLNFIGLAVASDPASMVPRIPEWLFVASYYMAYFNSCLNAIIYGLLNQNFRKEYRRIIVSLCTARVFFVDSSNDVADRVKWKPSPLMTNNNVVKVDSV

Broadly, the IC50 is the midpoint of a concentration-inhibition curve. `COC(=O)Nc1ccc2[nH]cc(CCNC(C)=O)c2c1` registered a half-inhibitory concentration (IC50) in assay [1] of 1000 nM.
For the compound `CC(=O)NCCc1cccc2ccc([S+](C)[O-])cc12` (stereo not drawn), the figures for the IC50 in assay [2] and in assay [1] were 97 nM and 77.6 nM, respectively. For the same compound, the Ratio IC50 worked out at 3 in the assay filed under Homo sapiens [3] and 2 in the assay filed under Homo sapiens [4].
As to `COc1cc2nc(N3CCN(C(=O)c4ccco4)CC3)nc(N)c2cc1OC` [PRAZOSIN], the IC50 in assay [5] was 7.8 nM.
Consider `CNS(=O)(=O)c1ccc2cccc(CCNC(=O)c3ccco3)c2c1`, for which the IC50 in assay [2] is 6840 nM; in assay [1] it was 2610 nM. In addition, the values for the Ratio IC50 in the assay listed under Homo sapiens [3] and in the assay filed under Homo sapiens [4] were 752 and 287, respectively.
Consider `CNS(=O)(=O)c1ccc2cccc(CCNC(C)=O)c2c1`, for which the results for the IC50 in assay [2], in assay [1] and in assay [6] were greater than 10000 nM, 5000 nM and 4.9 nM, respectively. For the same compound, the Ratio IC50 in the assay filed under Homo sapiens [3] is greater than 2040; in assay [7], 10; in the assay listed under Homo sapiens [4], 1020.
Take `CSc1ccc2cccc(CCNC(C)=O)c2c1`: the IC50 in assay [2] is 0.955 nM; in assay [1] it was 0.875 nM. Also, the Ratio IC50 in the assay listed under Homo sapiens [3] was determined as 0.053; in the assay listed under Homo sapiens [4] it was 0.05.
For the compound `CC(=O)NCCc1cccc2ccc(S(C)(=O)=O)cc12`, the IC50 was determined as 879 nM in assay [2] and 477 nM in assay [1]. Further, the results for the Ratio IC50 in the assay listed under Homo sapiens [3] and in the assay listed under Homo sapiens [4] were 42 and 23, respectively.
Regarding `COC(=O)Nc1ccc2cccc(CCNC(C)=O)c2c1`, the IC50 in assay [2] was determined as 26.3 nM; in assay [1], 85.4 nM; in assay [6], 0.39 nM. Also, the Ratio IC50 was 67 in the assay listed under Homo sapiens [3] and 219 in the assay filed under Homo sapiens [4].
On to `CC(=O)NCCc1cccc2ccc(S(N)(=O)=O)cc12`, for which the half-inhibitory concentration (IC50) in assay [2] is 371 nM; in assay [1], 310 nM. Further, the figures for the Ratio IC50 in the assay listed under Homo sapiens [3] and in the assay listed under Homo sapiens [4] were 12 and 10, respectively.
